Activity calls are given as the source filed them. No cut-off for these calls is given here.
Assays:
Bacillus subtilis [1] = test: Antibacterial activity against Bacillus subtilis BNCC336690 assessed as inhibition of bacterial growth incubated for 18 hrs by CLSI protocol based microbroth dilution method; assay type: functional
Pseudomonas aeruginosa = test: Antibacterial activity against Pseudomonas aeruginosa BNCC337940 assessed as inhibition of bacterial growth incubated for 18 hrs by CLSI protocol based microbroth dilution method; assay type: functional
Staphylococcus aureus [2] = test: Bactericidal activity against methicillin-resistant Staphylococcus aureus ATCC43300 incubated for 24 hrs by CLSI protocol based microbroth dilution method; assay type: functional
Staphylococcus aureus [3] = test: Antibacterial activity against methicillin-resistant Staphylococcus aureus ATCC43300 assessed as reduction in bacterial count at 1 times of MIC incubated for 24 hrs by time kill kinetics assay; assay type: functional, organism-based
Staphylococcus aureus [4] = test: Antibacterial activity against methicillin-resistant Staphylococcus aureus ATCC43300 assessed as log reduction in bacterial count measured within 0.5 hrs by time kill kinetics assay; assay type: functional
Cell membrane [5] = test: Disruption of cell membrane integrity in methicillin-resistant Staphylococcus aureus ATCC43300 assessed as ghost cell formation at 4 times of MIC incubated for 2 hrs by transmission electron microscopic analysis; assay type: cell membranes
Cell membrane [6] = test: Disruption of cell membrane integrity in methicillin-resistant Staphylococcus aureus ATCC43300 assessed as appearance of collapsed cells at 4 times of MIC incubated for 2 hrs by transmission electron microscopic analysis; assay type: cell membranes
Cell membrane [7] = test: Disruption of cell membrane integrity in penicillin-susceptible Escherichia coli ATCC25922 assessed as cell deformation at 4 times of MIC incubated for 2 hrs by transmission electron microscopic analysis; assay type: cell membranes
Cell membrane [8] = test: Disruption of cell membrane integrity in penicillin-susceptible Escherichia coli ATCC25922 at 4 times of MIC incubated for 2 hrs by scanning electron microscopic analysis; assay type: cell membranes
Bacillus subtilis [9] = test: Induction of morphological changes in Bacillus subtilis BNCC336690 assessed as cell elongation by measuring cell length at 0.5 times of MIC incubated for 4 hrs by optical microscopic analysis; assay type: functional
Escherichia coli [10] = test: Induction of morphological changes in penicillin-susceptible Escherichia coli ATCC25922 assessed as cell elongation at 0.5 times of MIC incubated for 4 hrs by optical microscopic analysis; assay type: functional, organism-based
[11] = biological target: T1, Cell division protein FtsZ (Escherichia coli K-12) (UniProt P0A9A6); test: Induction of recombinant FtsZ polymerization in penicillin-susceptible Escherichia coli ATCC25922 assessed as bundling of FtsZ protofilaments at 1 to 4 microg/ml incubated for 10 mins by light scattering assay; conditions: filed as activator, dose 1-4 µg/ml
T1 sequence (whole entry): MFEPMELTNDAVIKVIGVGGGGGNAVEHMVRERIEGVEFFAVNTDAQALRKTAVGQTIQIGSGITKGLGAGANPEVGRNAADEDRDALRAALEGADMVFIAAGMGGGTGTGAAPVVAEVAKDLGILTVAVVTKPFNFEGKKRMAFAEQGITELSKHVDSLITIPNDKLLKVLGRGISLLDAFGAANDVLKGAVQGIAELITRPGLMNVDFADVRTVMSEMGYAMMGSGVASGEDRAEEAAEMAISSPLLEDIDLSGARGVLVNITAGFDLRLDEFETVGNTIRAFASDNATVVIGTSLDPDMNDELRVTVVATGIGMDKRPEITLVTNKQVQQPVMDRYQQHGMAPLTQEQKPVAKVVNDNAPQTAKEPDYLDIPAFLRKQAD

[12] = biological target: T1, Cell division protein FtsZ (Escherichia coli K-12); test: Induction of recombinant FtsZ polymerization in penicillin-susceptible Escherichia coli ATCC25922 assessed as stabilization of FtsZ bundles at 1 to 4 microg/ml incubated for 10 mins by light scattering assay; conditions: filed as activator, dose 1-4 µg/ml
[13] = biological target: T2, Cell division protein FtsZ (Staphylococcus aureus) (UniProt P0A031); test: Induction of FtsZ polymerization in methicillin-resistant Staphylococcus aureus ATCC43300 assessed as bundling of FtsZ protofilaments at 4 microg/ml preincubated for 10 mins followed by GTP addition and measured after 15 mins by transmission electron microscopic analysis; conditions: filed as activator, dose 4.0 µg/ml, time 25.0 min
T2 sequence (whole entry): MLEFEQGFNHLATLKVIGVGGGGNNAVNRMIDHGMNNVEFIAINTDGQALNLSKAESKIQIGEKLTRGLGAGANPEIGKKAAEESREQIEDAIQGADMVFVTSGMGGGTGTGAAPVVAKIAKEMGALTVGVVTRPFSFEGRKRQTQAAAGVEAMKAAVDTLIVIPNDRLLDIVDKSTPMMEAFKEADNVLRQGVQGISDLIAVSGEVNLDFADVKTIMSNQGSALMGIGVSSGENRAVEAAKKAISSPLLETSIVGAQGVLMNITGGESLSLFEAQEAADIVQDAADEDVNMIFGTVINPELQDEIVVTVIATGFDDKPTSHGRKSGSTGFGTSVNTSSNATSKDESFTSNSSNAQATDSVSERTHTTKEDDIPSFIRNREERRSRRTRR

Erythrocyte = test: Hemolytic activity in human erythrocytes at 0.195 to 25 microg/ml incubated for 1 hrs by absorbance based assay; assay type: toxicity, cell-based; conditions: dose 0.195-25 µg/ml
Staphylococcus aureus [14] = test: Inhibition of biofilm formation in methicillin-resistant Staphylococcus aureus ATCC43300 incubated for 24 hrs by crystal violet staining based analysis; assay type: functional, organism-based; conditions: dose 0.78-100 µg/ml
Escherichia coli [15] = test: Antibacterial activity against penicillin-susceptible Escherichia coli ATCC25922 assessed as log reduction in bacterial count at 4 times of MIC measured after 24 hrs by time kill kinetics assay; assay type: functional, organism-based
Escherichia coli [16] = test: Antibacterial activity against penicillin-susceptible Escherichia coli ATCC25922 assessed as log reduction in bacterial count at 2 times of MIC measured after 12 hrs by time kill kinetics assay; assay type: functional, organism-based
Escherichia coli [17] = test: Antibacterial activity against penicillin-susceptible Escherichia coli ATCC25922 assessed as log reduction in bacterial count at 1 times of MIC measured after 2 hrs by time kill kinetics assay; assay type: functional, organism-based
Cell membrane [18] = test: Disruption of cell membrane integrity in methicillin-resistant Staphylococcus aureus ATCC43300 assessed as increase in cellular debris at 4 times of MIC incubated for 2 hrs by transmission electron microscopic analysis; assay type: cell membranes
[19] = Cytotoxicity against mouse RAW264.7 cells assessed as cell viability at 6.25 microg/ml incubated for 24 hrs by CCK8 assay relative to control; assay type: toxicity, cell-based; conditions: at 6.25 µg/mL, read-out: Activity
Staphylococcus aureus [20] = test: Inhibition of biofilm formation in methicillin-resistant Staphylococcus aureus ATCC43300 assessed as decrease in biofilm formation rate at 4 times of MIC incubated for 24 hrs by crystal violet staining based analysis relative to control; assay type: functional; design: scale not given: the % may be the effect or the level left
Escherichia coli [21] = test: Antibacterial activity against penicillin-susceptible Escherichia coli ATCC25922 assessed as reduction in bacterial growth at 0.5 times of MIC incubated for 18 to 24 hrs and measured after 25 passages by drug resistance assay; assay type: functional, organism-based
Cell membrane [22] = test: Disruption of cell membrane integrity in penicillin-susceptible Escherichia coli ATCC25922 assessed as appearance of wrecked cells at 4 times of MIC incubated for 2 hrs by transmission electron microscopic analysis; assay type: cell membranes
Staphylococcus aureus [23] = test: Inhibition of biofilm formation in methicillin-resistant Staphylococcus aureus ATCC43300 assessed as decrease in biofilm formation rate at 6.25 microg/ml incubated for 24 hrs by crystal violet staining based analysis relative to control; assay type: functional; design: scale not given: the % may be the effect or the level left; conditions: dose 6.25 µg/ml

Compound | MIC (Bacillus subtilis [1]) [µg/mL] | MIC (Pseudomonas aeruginosa) [µg/mL] | MBC (Staphylococcus aureus [2]) [µg/mL] | Activity (Staphylococcus aureus [3]) | Activity (Staphylococcus aureus [4]) [log10CFU/ml] | Activity (Cell membrane [5]) | Activity (Cell membrane [6]) | Activity (Cell membrane [7]) | Activity (Cell membrane [8]) | Activity (Bacillus subtilis [9]) [um] | Activity (Escherichia coli [10]) | Activity [11] | Activity [12] | Activity [13] | Activity (Erythrocyte) | inhibition (Staphylococcus aureus [14]) | other results
O=C1c2ccccc2-[n+]2ccc3c([nH]c4ccc(-c5ccccc5F)cc43)c21.[Cl-] | 0.024 | > 200 | 0.195 | Active | >3 | Active | Active | Active | Active | >50 | Active | Active | Active | Active | Non-Toxic | Dose-Dependent Effect | 
O=C1c2ccccc2-[n+]2ccc3c([nH]c4ccc(-c5ccccc5C(F)(F)F)cc43)c21.[Cl-] | 0.024 | > 200 | 1.56 | Active | >3 | Active |  | Active | Active | >50 | Active | Active | Active | Active | Non-Toxic | Dose-Dependent Effect | Activity (Escherichia coli [15]): Active; Activity (Escherichia coli [16]): inactive; Activity (Escherichia coli [17]): inactive; Activity (Cell membrane [18]): Active; viability at 24 h, 6.25 microg/ml [19]: 57%; Activity (Staphylococcus aureus [20]): 18%
O=C1c2ccccc2-[n+]2ccc3c([nH]c4ccc(-c5ccccc5Cl)cc43)c21.[Cl-] | 0.049 | > 200 | 1.56 | Active | >3 | Active | Active | Active | Active | >50 | Active | Active | Active | Active | Non-Toxic | Dose-Dependent Effect | Activity (Escherichia coli [21]): Active; Activity (Cell membrane [22]): Active; Activity (Staphylococcus aureus [23]): 49%
